Data set [1] is described as follows: Hepatotoxicity in Kunming mouse assessed as increase in plasma aspartate transaminase level at 412 mg/kg, ig for 1 month. Type of data set: toxicity, organism-based. As to conditions: in vivo, po, 730 h, time 1 months.
The nature of data set [2]: Hepatotoxicity in Kunming mouse assessed as hepatocyte swelling at 412 mg/kg, ig for 1 month by H and E staining based analysis. It counts as toxicity, organism-based. As to conditions: in vivo, po, 730 h, time 1 months.
A short description of data set [3]: Hepatotoxicity in Kunming mouse assessed as induction of oxidative stress by measuring decrease in plasma GSH level at 412 mg/kg, ig for 1 month. As to conditions: in vivo, po, 730 h, time 1 months. Type of data set: toxicity, organism-based.
Data set [4] is described as follows: Upregulation of p-NF-kB-p65 protein expression in Kunming mouse liver at 412 mg/kg, ig for 1 month by western blot analysis. Type of data set: ADME, organism-based. As to conditions: in vivo, po, 730 h, time 1 months. In general terms: A western blot detects proteins with antibodies after separation by electrophoresis.
Data set [5] in a line: Hepatotoxicity in Kunming mouse assessed as increase in hepatic weight at 412 mg/kg, ig for 1 month. The conditions noted are these: in vivo, po, 730 h, time 1 months. Type of data set: toxicity, organism-based.
Data set [6] relates to Mus musculus. Description: Hypolipidemic activity in TritonWR1339-induced hyperlipidemic Kunming mouse model assessed as reduction in plasma TG level at 0.362 mmol/kg, ig administered for 7 days. It counts as functional. The conditions noted are these: po, 168 h, time 7 day.
A short description of data set [7]: Hepatotoxicity in Kunming mouse assessed as induction of inflammatory response by measuring upregulation of IL-6 level in liver at 412 mg/kg, ig for 1 month by western blot analysis. As to conditions: in vivo, po, 730 h, time 1 months. It counts as toxicity, organism-based.
A short description of data set [8]: Acute toxicity in Kunming mouse assessed as change in body weight at 412 mg/kg, ig for 1 month. Type of data set: organism-based. As to conditions: in vivo, po, 730 h, time 1 months.
Data set [9] is described as follows: Hepatotoxicity in Kunming mouse assessed as induction of oxidative stress by measuring decrease in plasma CAT level at 412 mg/kg, ig for 1 month. It counts as toxicity, organism-based. As to conditions: in vivo, po, 730 h, time 1 months.
The nature of data set [10]: Hepatotoxicity in Kunming mouse assessed as increase in plasma alkaline phosphatase level at 412 mg/kg, ig for 1 month. The conditions noted are these: in vivo, po, 730 h, time 1 months. It counts as toxicity, organism-based.
For data set [11], the system named is Mus musculus. Put plainly: Upregulation of Nrf2 protein expression in Kunming mouse liver nucleus at 412 mg/kg, ig for 1 month by western blot analysis. It counts as functional, organism-based. The conditions noted are these: time 1.0 months.
The test system of data set [12] is Mus musculus. Put plainly: Hypolipidemic activity in TritonWR1339-induced hyperlipidemic Kunming mouse model assessed as reduction in plasma TC level at 0.362 mmol/kg, ig administered for 7 days. It counts as functional. As to conditions: po, 168 h, time 7 day.
The nature of data set [13]: Hepatotoxicity in Kunming mouse assessed as increase in plasma total protein level at 412 mg/kg, ig for 1 month. Type of data set: toxicity, organism-based. The conditions noted are these: in vivo, po, 730 h, time 1 months.
In data set [14] the test system is Mus musculus. Description: Upregulation of HO-1 protein expression in Kunming mouse liver at 412 mg/kg, ig for 1 month by western blot analysis. It counts as functional, organism-based. The conditions noted are these: time 1.0 months.
The nature of data set [15]: Hepatotoxicity in Kunming mouse assessed as induction of oxidative stress by measuring increase in plasma MDA level at 412 mg/kg, ig for 1 month. Type of data set: toxicity, organism-based. As to conditions: in vivo, po, 730 h, time 1 months.
A short description of data set [16]: Hepatotoxicity in Kunming mouse assessed as cell infiltration in central vein and inflammatory cell infiltration at 412 mg/kg, ig for 1 month by H and E staining based analysis. It counts as toxicity, organism-based. As to conditions: in vivo, po, 730 h, time 1 months.
Data set [17] is described as follows: Hepatotoxicity in Kunming mouse assessed as induction of inflammatory response by measuring upregulation of TNF-alpha level in liver at 412 mg/kg, ig for 1 month by western blot analysis. Type of data set: toxicity, organism-based. As to conditions: in vivo, po, 730 h, time 1 months.
Data set [18] can be described thus: Hepatotoxicity in Kunming mouse assessed as increase in plasma alanine aminotransferase level at 412 mg/kg, ig for 1 month. Type of data set: toxicity, organism-based. As to conditions: in vivo, po, 730 h, time 1 months.
Data set [19] is described as follows: Hepatotoxicity in Kunming mouse assessed as increase in liver coefficient at 412 mg/kg, ig for 1 month. It counts as toxicity, organism-based. The conditions noted are these: in vivo, po, 730 h, time 1 months.
Data set [20] in a line: Hepatotoxicity in Kunming mouse assessed as induction of oxidative stress by measuring decrease in plasma superoxide dismutase level at 412 mg/kg, ig for 1 month. Type of data set: toxicity, organism-based. As to conditions: in vivo, po, 730 h, time 1 months.
Data set [21] in a line: Upregulation of p-NF-kB-p65 protein expression in Kunming mouse liver at 300 mg/kg, ig for 1 month by western blot analysis. Type of data set: ADME, organism-based. As to conditions: in vivo, po, 730 h, time 1 months.
Data set [22] can be described thus: Hepatotoxicity in Kunming mouse assessed as increase in plasma alkaline phosphatase level at 300 mg/kg, ig for 1 month. Type of data set: toxicity, organism-based. As to conditions: in vivo, po, 730 h, time 1 months.
The nature of data set [23]: Hepatotoxicity in Kunming mouse assessed as large areas of hepatocyte swelling, necrosis, loose cytoplasm, nuclear degeneration and dissolution at 300 mg/kg, ig for 1 month by H and E staining based analysis. Type of data set: toxicity, organism-based. The conditions noted are these: in vivo, po, 730 h, time 1 months.
Data set [24] in a line: Hepatotoxicity in Kunming mouse assessed as cell infiltration in central vein and inflammatory cell infiltration at 300 mg/kg, ig for 1 month by H and E staining based analysis. Type of data set: toxicity, organism-based. The conditions noted are these: in vivo, po, 730 h, time 1 months.
Data set [25] is described as follows: Hepatotoxicity in Kunming mouse assessed as increase in plasma aspartate transaminase level at 300 mg/kg, ig for 1 month. It counts as toxicity, organism-based. The conditions noted are these: in vivo, po, 730 h, time 1 months.
A short description of data set [26]: Hepatotoxicity in Kunming mouse assessed as increase in plasma total protein level at 300 mg/kg, ig for 1 month. It counts as toxicity, organism-based. The conditions noted are these: in vivo, po, 730 h, time 1 months.
Data set [27] is described as follows: Hepatotoxicity in Kunming mouse assessed as induction of inflammatory response by measuring upregulation of TNF-alpha level in liver at 300 mg/kg, ig for 1 month by western blot analysis. It counts as toxicity, organism-based. The conditions noted are these: in vivo, po, 730 h, time 1 months.
Data set [28] in a line: Hepatotoxicity in Kunming mouse assessed as induction of oxidative stress by measuring decrease in plasma GSH level at 300 mg/kg, ig for 1 month. Type of data set: toxicity, organism-based. As to conditions: in vivo, po, 730 h, time 1 months.
Data set [29] is described as follows: Hepatotoxicity in Kunming mouse assessed as induction of inflammatory response by measuring upregulation of IL-6 level in liver at 300 mg/kg, ig for 1 month by western blot analysis. The conditions noted are these: in vivo, po, 730 h, time 1 months. Type of data set: toxicity, organism-based.
A short description of data set [30]: Hepatotoxicity in Kunming mouse assessed as induction of oxidative stress by measuring decrease in plasma superoxide dismutase level at 300 mg/kg, ig for 1 month. It counts as toxicity, organism-based. As to conditions: in vivo, po, 730 h, time 1 months.
The nature of data set [31]: Hepatotoxicity in Kunming mouse assessed as increase in liver coefficient at 300 mg/kg, ig for 1 month. Type of data set: toxicity, organism-based. The conditions noted are these: in vivo, po, 730 h, time 1 months.
Data set [32] concerns Mus musculus. Description: Upregulation of Nrf2 protein expression in Kunming mouse liver nucleus at 300 mg/kg, ig for 1 month by western blot analysis. Type of data set: functional, organism-based. The conditions noted are these: time 1.0 months.
A short description of data set [33]: Hepatotoxicity in Kunming mouse assessed as increase in hepatic weight at 300 mg/kg, ig for 1 month. It counts as toxicity, organism-based. As to conditions: in vivo, po, 730 h, time 1 months.
Data set [34] is described as follows: Acute toxicity in Kunming mouse assessed as change in body weight at 300 mg/kg, ig for 1 month. It counts as organism-based. As to conditions: in vivo, po, 730 h, time 1 months.
Data set [35] is described as follows: Hepatotoxicity in Kunming mouse assessed as increase in plasma alanine aminotransferase level at 300 mg/kg, ig for 1 month. Type of data set: toxicity, organism-based. The conditions noted are these: in vivo, po, 730 h, time 1 months.
Data set [36] is described as follows: Hepatotoxicity in Kunming mouse assessed as induction of oxidative stress by measuring increase in plasma MDA level at 300 mg/kg, ig for 1 month. As to conditions: in vivo, po, 730 h, time 1 months. Type of data set: toxicity, organism-based.
Data set [37] can be described thus: Hepatotoxicity in Kunming mouse assessed as induction of oxidative stress by measuring decrease in plasma CAT level at 300 mg/kg, ig for 1 month. It counts as toxicity, organism-based. The conditions noted are these: in vivo, po, 730 h, time 1 months.
Data set [38] deals with Mus musculus. Description: Upregulation of HO-1 protein expression in Kunming mouse liver at 300 mg/kg, ig for 1 month by western blot analysis. As to conditions: time 1.0 months. Type of data set: functional, organism-based.

Activity calls are given as the source filed them. The calls are words filed in the database; no cut-off is given here.

For orientation: inhibition in vivo means the relative decrease from the control value, in per cent.

In the case of `CC(C)(Oc1ccc(Cl)cc1)C(=O)Oc1ccc2c(c1)OCO2`, the Activity entry in data set [1] is “Non-Toxic”; in [2], “Toxic”; in [3] it was “Toxic”; in data set [4], “Non-Toxic”; in data set [5], “Non-Toxic”; in data set [7] it was “Non-Toxic”. In addition, the Activity result in data set [8], in data set [9], in [10], in [13], in [15] and in [16] was “Non-Toxic” each time. The Activity entry in data set [17], in data set [18], in data set [19] and in data set [20] was “Non-Toxic” throughout. Besides, the inhibition in vivo at 362 µmol/kg in the data set with Mus musculus [6] came out at 38.6%; with Mus musculus [12], 35.1%. The result in the data set with Mus musculus [11] and with Mus musculus [14] was Active.
In the case of `CCOC(=O)C(C)(C)Oc1ccc(Cl)cc1` [CLOFIBRATE], the Activity entry in [21], in [22], in data set [23], in data set [24], in data set [25] and in [26] was “Toxic” in each case. Also, the Activity entry in data set [27], in data set [28], in data set [29], in data set [30], in data set [31] and in data set [33] was “Toxic” throughout. Moreover, the Activity entry is reported as “Non-Toxic” in data set [34], “Toxic” in data set [35], “Toxic” in data set [36] and “Toxic” in [37]. The inhibition in vivo at 362 µmol/kg with Mus musculus [6] is 25.5%; with Mus musculus [12], 21.2%. In addition, the result with Mus musculus [32] and in the data set on Mus musculus [38] was inactive.

These data come from ChEMBL document CHEMBL4808189, “The combination of sesamol and clofibric acid moieties leads to a novel potent hypolipidemic agent with antioxidant, anti-inflammatory and hepatoprotective activity” (Bioorg Med Chem Lett, 2021).
